Measurements published in patent US20130089627A1, “METHOD FOR TREATING A CANCER CAUSED BY CANCER STEM CELLS” (NEW BELLUS ENTERPRISES CO., LTD., priority 2011, published 2013).
Blank lines part the entries; values can stand above or below the compound they belong to.

Key:
[1] = tested on: breast cancer stem cells (Breast CSC); experiment: MTT cytotoxicity test, breast cancer stem cells; assay type: cell-based
Description: (§1) The purpose of the present invention is to screen for the A. camphorata extracts with anti-cancer activity. MTT (3-(4,5-dimethylthiazol-2-yl)-2,5-diphenyltetrazolium bromide) assay was used to complete the cytotoxicity test. Human lung cancer stem cells (lung CSC), human Adult fibroblast-1 (AF-1), glioblastoma multiforme cancer stem cells (GBM CSC), human Adult fibroblast-2 (AF-2), head and neck squamous cell carcinoma cancer stem cells (HNSCC CSC), colorectal cancer stem cells (CRC CSC), as well as breast cancer stem cells (Breast CSC), hepatoma cancer stem cells (hepatoma CSC), leukemia cancer stem cells (leukemia CSC) and gastric cancer stem cells (Gastric CSC) are used in cell experiments of the present invention.
(§2) The principle of cytotoxic activity test (MTT assay) is that succinate dehydrogenase in the mitochondria of a living cell can reduce MTT (3-(4,5-dimethylthiazol-2-yl)-2,5-diphenyltetrazolium bromide), and blue-violet formazan was formed under reaction with cytochrome C. Generally, the amount of formazan generated is proportional to the activity of the mitochondria and the number of living cells. After adding dimethyl sulfoxide (DMSO) to dissolve formazan, the number of living cells can be estimated by the optical density (OD) value. […]

[2] = tested on: oral cancer stem cells (Oral CSC); experiment: MTT cytotoxicity test, oral cancer stem cells; assay type: cell-based
Description: (§3) The principle of cytotoxic activity test (MTT assay) is that succinate dehydrogenase in the mitochondria of a living cell can reduce MTT (3-(4,5-dimethylthiazol-2-yl)-2,5-diphenyltetrazolium bromide), and blue-violet formazan was formed under reaction with cytochrome C. Generally, the amount of formazan generated is proportional to the activity of the mitochondria and the number of living cells. After adding dimethyl sulfoxide (DMSO) to dissolve formazan, the number of living cells can be estimated by the optical density (OD) value.
(§4) The definition of half maximal inhibitory concentration (IC50) is the concentration for survival rate of 50% under the reaction with drugs or compounds.

[3] = tested on: colorectal cancer stem cells (CRC CSC); experiment: MTT cytotoxicity test, colorectal cancer stem cells; assay type: cell-based
Description: as §1, §2

[4] = tested on: human lung cancer stem cells (Lung CSC); experiment: MTT cytotoxicity test, lung cancer stem cells; assay type: cell-based
Description: as §1, §2

[5] = tested on: Lung adenocarcinoma CD133 positive cancer stem cells; experiment: MTT cytotoxicity test, lung adenocarcinoma CD133 positive cancer stem cells; assay type: cell-based
Description: as §3, §4

cancer stem cells = experiment: MTT cytotoxicity tests of 4-acetyl-antroquinonol B, summary in words; assay type: cell-based; details: lung adenocarcinoma CD133 positive, oral, GBM, breast and colorectal cancer stem cells
Description: as §3

[6] = tested on: Glioblastomas multiform cancer stem cells (GBM CSC); experiment: MTT cytotoxicity test, GBM cancer stem cells (subline not stated); assay type: cell-based
Description: as §1, §2

[7] = tested on: Glioblastomas multiform cancer stem cells; experiment: Co-administration with chemotherapy drugs, GBM cancer stem cells; assay type: cell-based
Description: as §4
(§5) Cisplatin: cis-diammineplatinum(II) dichloride (Sigma-Aldrich, USA)
(§6) Taxol: Paclitaxel (Sigma-Aldrich, USA)
(§7) According to the pretested half maximal inhibitory concentration (IC50) of D1˜D5, different cancer stem cells were used to test the cytotoxic concentration for (1) the co-administration of A. camphorata extracts with the chemotherapy drug, Cisplatin; (2) the co-administration of A. camphorata extracts with the chemotherapy drug, Taxol.

[8] = tested on: colorectal cancer stem cells; experiment: Co-administration with chemotherapy drugs, colorectal cancer stem cells; assay type: cell-based
Description: as §4, §5, §6, §7

breast cancer stem cells = experiment: Co-administration with chemotherapy drugs, breast cancer stem cells; assay type: cell-based
Description: as §4, §5, §6, §7

[9] = tested on: Hepatoma cancer stem cells; experiment: Co-administration with chemotherapy drugs, hepatoma cancer stem cells; assay type: cell-based
Description: as §4, §5, §6, §7

lung cancer stem cells = experiment: Co-administration with chemotherapy drugs, lung cancer stem cells; assay type: cell-based, human
Description: as §4, §5, §6, §7

[10] = tested on: Head and neck squamous cell carcinoma cancer stem cells; experiment: Co-administration with chemotherapy drugs, HNSCC cancer stem cells; assay type: cell-based
Description: as §4, §5, §6, §7

SMILES: COC1=C(OC)C(OC(C)=O)C(C/C=C(\C)CCC2(C)CCC(=O)O2)C(C)C1=O (stereo not shown) [4-acetyl-antroquinonol B]
half maximal inhibitory concentration (IC50) of 4-acetyl-antroquinonol B [1]: 20.77 µg/mL | half maximal inhibitory concentration (IC50) of 4-acetyl-antroquinonol B [2]: 14.37 µg/mL | half maximal inhibitory concentration (IC50) of 4-acetyl-antroquinonol B [3]: 9.72 µg/mL | half maximal inhibitory concentration (IC50) of 4-acetyl-antroquinonol B [4]: 12.37 µg/mL | half maximal inhibitory concentration (IC50) of 4-acetyl-antroquinonol B [5]: 16.4 µg/mL | inhibitory effects on the growth of cancer stem cells (in words) (cancer stem cells): effective inhibitory effects on the growth of cancer stem cells | half maximal inhibitory concentration (IC50) of 4-acetyl-antroquinonol B [6]: 18.2 µg/mL

SMILES: N.N.[Cl][Pt][Cl] [Cisplatin, cis-diammineplatinum(II) dichloride]
Cisplatin IC50 [7]: 23.33 µg/mL | Cisplatin IC50 [8]: 42.83 µg/mL | Cisplatin IC50 (breast cancer stem cells): 20.23 µg/mL | Cisplatin IC50 [9]: 40.15 µg/mL | Cisplatin IC50 (lung cancer stem cells): 17.98 µg/mL | Cisplatin IC50 [10]: 18.87 µg/mL

IC50 ([7]; read-out: Taxol IC50): 0.0207 µg/mL | IC50 ([8]; read-out: Taxol IC50): 0.0317 µg/mL | IC50 (breast cancer stem cells; read-out: Taxol IC50): 0.00983 µg/mL | IC50 ([9]; read-out: Taxol IC50): 0.0335 µg/mL | IC50 (lung cancer stem cells; Homo sapiens, read-out: Taxol IC50): 0.0137 µg/mL | IC50 ([10]; read-out: Taxol IC50): 0.0102 µg/mL
SMILES: CC(=O)O[C@H]1C(=O)[C@@]2(C)[C@H]([C@H](OC(=O)c3ccccc3)[C@]3(O)C[C@H](OC(=O)[C@H](O)[C@@H](NC(=O)c4ccccc4)c4ccccc4)C(C)=C1C3(C)C)[C@]1(OC(C)=O)CO[C@@H]1C[C@@H]2O [Taxol, Paclitaxel]
